Results from PubChem BioAssay AID192 (DTP/NCI, 2004).
Where “and” joins values, the source holds several entries; their conditions need not be identical. Equal values may be shown once. Toxic doses and inconclusive results are not listed.

Tested on: BDF1 mice, B16 melanoma ip, median survival T/C
Assay: NCI In Vivo Anticancer Drug Screen. Data for tumor model B16 Melanoma (intraperitoneal) in B6D2F1 (BDF1) mice
Conditions: endpoint: median survival time, higher = longer survival
Outline: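 Survival or tumor size is measured after treatment of tumor-bearing mice and normalised to the vehicle-treated control group.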

[1] = dose: 50.0 mg/kg/injection, schedule: Q01DX009 (ip), vehicle: saline
[2] = dose: 100.0 mg/kg/injection, schedule: Q01DX009 (ip), vehicle: saline
[3] = dose: 200.0 mg/kg/injection, schedule: Q01DX009 (ip), vehicle: saline
[4] = dose: 400.0 mg/kg/injection, schedule: Q01DX009 (ip), vehicle: saline
[5] = dose: 50.0 mg/kg/injection, schedule: Q01DX009 (ip), vehicle: Klucel (hydroxypropylcellulose) (HPC)
[6] = dose: 200.0 mg/kg/injection, schedule: Q01DX009 (ip), vehicle: Klucel (hydroxypropylcellulose) (HPC)
[7] = dose: 12.5 mg/kg/injection, schedule: Q01DX009 (ip), vehicle: Klucel (hydroxypropylcellulose) (HPC)
[8] = dose: 25.0 mg/kg/injection, schedule: Q01DX009 (ip), vehicle: Klucel (hydroxypropylcellulose) (HPC)
[9] = dose: 25.0 mg/kg/injection, schedule: Q01DX009 (ip), vehicle: saline with Tween-80
[10] = dose: 50.0 mg/kg/injection, schedule: Q01DX009 (ip), vehicle: saline with Tween-80
[11] = dose: 100.0 mg/kg/injection, schedule: Q01DX009 (ip), vehicle: Klucel (hydroxypropylcellulose) (HPC)
[12] = dose: 100.0 mg/kg/injection, schedule: Q01DX009 (ip), vehicle: saline with Tween-80
[13] = dose: 6.25 mg/kg/injection, schedule: Q01DX009 (ip), vehicle: saline
[14] = dose: 12.5 mg/kg/injection, schedule: Q01DX009 (ip), vehicle: saline
[15] = dose: 12.5 mg/kg/injection, schedule: Q01DX009 (ip), vehicle: saline with Tween-80
[16] = dose: 100.0 mg/kg/injection, schedule: Q04DX003 (ip), vehicle: saline with Tween-80
[17] = dose: 200.0 mg/kg/injection, schedule: Q01DX009 (ip), vehicle: saline with Tween-80

Q: With `CN(C)CC(Cl)CCl` (configuration not stated) as the compound, how does the T/C [1] read?
A: 98 % of control

Q: And the T/C [2]?
A: 102 % of control

Q: What about the T/C [3] of the same compound?
A: 105 % of control

Q: What about the T/C [4] of the same compound?
A: 108 % of control

Q: `CCOC(=O)C(=Cc1ccc(C=C(C(=O)OCC)C(=O)OCC)cc1)C(=O)OCC` was tested. Which T/C [5] did it give?
A: 93 % of control

Q: And the T/C [6]?
A: 93 % of control

Q: With `C=C1C(=O)OC2CC1C(OC(=O)/C=C/c1ccccc1)C/C(C)=C/CC/C(C)=C/CCC2(C)O` (configuration not stated) as the compound, how does the T/C [7] read?
A: 105 % of control

Q: And the T/C [8]?
A: 92 % of control

Q: What about the T/C [5] of the same compound?
A: 101 % of control

Q: For `CCN(c1ccccc1C)S(=O)(=O)c1ccccc1`, which T/C [9] is on record?
A: 100 % of control

Q: What about the T/C [10] of the same compound?
A: 101 % of control

Q: What about the T/C [11] of the same compound?
A: 96 % of control

Q: What about the T/C [12] of the same compound?
A: 96 % of control

Q: Which results are given for `CCOc1ccc(-c2nc3ccc(-c4nc5ccc(N6CCN(C)CC6)cc5[nH]4)cc3[nH]2)cc1`?
A: T/C (dose: 3.12 mg/kg/injection, schedule: Q01DX009 (ip), vehicle: saline): 106 % of control; T/C [13]: 113 % of control; T/C [14]: 112 % of control

Q: What does the source list for `CNC(C)C1(O)Cc2c(O)c3c(c(O)c2C(OC2CC(N)C(O)C(C)O2)C1)C(=O)c1c(OC)cccc1C3=O` (configuration not stated)?
A: T/C (dose: 0.5 mg/kg/injection, schedule: Q01DX009 (ip), vehicle: water): 108 % of control; T/C (dose: 1.0 mg/kg/injection, schedule: Q01DX009 (ip), vehicle: water): 112 % of control; T/C (dose: 4.0 mg/kg/injection, schedule: Q01DX009 (ip), vehicle: water): 163 % of control; T/C (dose: 8.0 mg/kg/injection, schedule: Q01DX009 (ip), vehicle: water): 172 % of control

Q: `O=Nc1c(O)ccc2ccccc12` was tested. Which T/C [8] did it give?
A: 90 % of control

Q: And the T/C [5]?
A: 93 % of control

Q: Which results are given for `ClC1=C(Cl)C2(Cl)C3C(Cl)C(Cl)CC3C1(Cl)C2(Cl)Cl` (configuration not stated)?
A: T/C [15]: 95 % of control; T/C [9]: 97 % of control

Q: Which results are given for `CC(=O)NC1CCCCC1`?
A: T/C (dose: 33.0 mg/kg/injection, schedule: Q04DX003 (ip), vehicle: saline with Tween-80): 100 % of control; T/C (dose: 75.0 mg/kg/injection, schedule: Q04DX003 (ip), vehicle: saline with Tween-80): 93 % of control; T/C [16]: 150 % of control

Q: Which T/C [12] does the source give for `C#CCSC(=S)NNc1ccccc1` here?
A: 106 % of control

Q: What about the T/C [17] of the same compound?
A: 112 % of control

Q: `C1=NC(c2ccccn2)=NNC(c2ccccn2)=C1c1ccccc1` was tested. Which T/C [8] did it give?
A: 100 % of control

Q: What about the T/C [5] of the same compound?
A: 101 % of control

Q: And the T/C [11]?
A: 86 % of control

Q: What does the source list for `O=[N+]([O-])C(CO)(CO)CO`?
A: T/C (dose: 100.0 mg/kg/injection, schedule: Q04DX003 (ip), vehicle: saline): 110 % of control; T/C (dose: 200.0 mg/kg/injection, schedule: Q04DX003 (ip), vehicle: saline): 110 % of control; T/C (dose: 400.0 mg/kg/injection, schedule: Q04DX003 (ip), vehicle: saline): 96 % of control

Q: How did the T/C (dose: 6.25 mg/kg/injection, schedule: Q01DX009 (ip), vehicle: saline with Tween-80) turn out when `CCOC(=O)c1ccc(Nc2sc(C(=O)c3ccc(Br)cc3)c(N)c2C#N)cc1` was run?
A: 92 % of control

Q: And the T/C [15]?
A: 87 % of control

Q: What about the T/C [9] of the same compound?
A: 88 % of control

Q: And the T/C [10]?
A: 86 % of control

Q: With `Nc1ccn([C@@H](C=O)O[C@@H](C=O)CO)c(=O)n1` as the compound, how does the T/C [13] read?
A: 100 % of control and 112 % of control

Q: And the T/C [14]?
A: 101 % of control and 102 % of control

Q: What about the T/C (dose: 25.0 mg/kg/injection, schedule: Q01DX009 (ip), vehicle: saline) of the same compound?
A: 91 % of control and 109 % of control

Q: What about the T/C [1] of the same compound?
A: 99 % of control and 103 % of control

Q: What about the T/C [2] of the same compound?
A: 107 % of control and 112 % of control

Q: What about the T/C [3] of the same compound?
A: 113 % of control

Q: For `O=C(Nc1ccccc1)c1ccc(Cl)c([N+](=O)[O-])c1`, which T/C [9] is on record?
A: 113 % of control

Q: And the T/C [10]?
A: 111 % of control

Q: And the T/C [12]?
A: 106 % of control

Q: With `CNC(=S)NCc1ccc(C(=O)NC(C)C)cc1` as the compound, how does the T/C [8] read?
A: 101 % of control

Q: And the T/C [5]?
A: 99 % of control

Q: What about the T/C [11] of the same compound?
A: 118 % of control

Q: What about the T/C [6] of the same compound?
A: 118 % of control

Q: Which results are given for `c1ccc(CC[P+](c2ccccc2)(c2ccccc2)c2ccccc2)cc1`?
A: T/C (dose: 0.78 mg/kg/injection, schedule: Q01DX009 (ip), vehicle: Klucel (hydroxypropylcellulose) (HPC)): 92 % of control; T/C (dose: 1.56 mg/kg/injection, schedule: Q01DX009 (ip), vehicle: Klucel (hydroxypropylcellulose) (HPC)): 103 % of control; T/C (dose: 3.13 mg/kg/injection, schedule: Q01DX009 (ip), vehicle: Klucel (hydroxypropylcellulose) (HPC)): 92 % of control

Q: What does the source list for `Cc1cc2ncn(CC(=O)O)c2cc1C`?
A: T/C [9]: 95 % of control; T/C [10]: 97 % of control; T/C [12]: 97 % of control

Q: For `COC(=O)N1CC=CCN1C(=O)OC`, which T/C [16] is on record?
A: 102 % of control

Q: And the T/C (dose: 200.0 mg/kg/injection, schedule: Q04DX003 (ip), vehicle: saline with Tween-80)?
A: 102 % of control

Q: And the T/C (dose: 400.0 mg/kg/injection, schedule: Q04DX003 (ip), vehicle: saline with Tween-80)?
A: 94 % of control

Q: For `C=C1C(=O)OC2/C=C(\C)CC/C=C(/C=O)C(OC(=O)C(C)C)C(O)C12` (configuration not stated), which T/C (dose: 1.0 mg/kg/injection, schedule: Q01DX009 (ip), vehicle: saline with Tween-80) is on record?
A: 97 % of control

Q: And the T/C (dose: 2.0 mg/kg/injection, schedule: Q01DX009 (ip), vehicle: saline with Tween-80)?
A: 89 % of control and 97 % of control

Q: And the T/C (dose: 4.0 mg/kg/injection, schedule: Q01DX009 (ip), vehicle: saline with Tween-80)?
A: 100 % of control and 103 % of control

Q: And the T/C (dose: 8.0 mg/kg/injection, schedule: Q01DX009 (ip), vehicle: saline with Tween-80)?
A: 100 % of control

Q: For `Cc1ccccc1Oc1ccccc1N`, which T/C (dose: 50.0 mg/kg/injection, schedule: Q01DX009 (sc), vehicle: olive oil, sesame oil, peanut oil) is on record?
A: 88 % of control

Q: And the T/C (dose: 100.0 mg/kg/injection, schedule: Q01DX009 (sc), vehicle: olive oil, sesame oil, peanut oil)?
A: 90 % of control

Q: What about the T/C (dose: 200.0 mg/kg/injection, schedule: Q01DX009 (sc), vehicle: olive oil, sesame oil, peanut oil) of the same compound?
A: 97 % of control

Q: What about the T/C (dose: 400.0 mg/kg/injection, schedule: Q01DX009 (sc), vehicle: olive oil, sesame oil, peanut oil) of the same compound?
A: 90 % of control

Q: Which results are given for `Nc1nc(N)c2nc(CNc3ccc(C(=O)NC(CCC(=O)O)C(=O)O)cc3)cnc2n1` (configuration not stated)?
A: T/C (dose: 0.03 mg/kg/injection, schedule: Q01DX009 (ip), vehicle: saline with Tween-80): 91 % of control; T/C (dose: 0.13 mg/kg/injection, schedule: Q01DX009 (ip), vehicle: saline with Tween-80): 102 % of control; T/C (dose: 0.25 mg/kg/injection, schedule: Q01DX009 (ip), vehicle: saline with Tween-80): 91 % of control and 95 % of control

Q: With `CN(C(N)=O)C1CCCC1` as the compound, how does the T/C [12] read?
A: 114 % of control

Q: And the T/C [17]?
A: 100 % of control

Q: And the T/C (dose: 400.0 mg/kg/injection, schedule: Q01DX009 (ip), vehicle: saline with Tween-80)?
A: 93 % of control

Q: Which results are given for `COc1cc(OC)c(OC)cc1/C=C\c1ccnc2ccccc12`?
A: T/C [2]: 97 % of control; T/C [3]: 105 % of control; T/C [4]: 107 % of control; T/C (dose: 800.0 mg/kg/injection, schedule: Q01DX009 (ip), vehicle: saline): 102 % of control

Q: Which T/C [7] does the source give for `CCCC1=NNc2n[nH]c(=S)n2N1` here?
A: 106 % of control

Q: And the T/C [8]?
A: 112 % of control

Q: And the T/C [5]?
A: 87 % of control
